Molecules are shown by their SMILES.

In assay [1] the test system is MDA-MB-231. Kind of assay: Antiproliferative activity against human MDA-MB-231 cells measured by MTT assay. The class given is functional, cell-based.
Assay [2] deals with MCF7. The experiment in a line: Antiproliferative activity against human MCF-7 cells measured by MTT assay. The assay is classed as functional, cell-based.

As usually defined, the IC50 is the concentration at which inhibition is half-maximal. The low end stands for greater potency, the high end for weaker potency. On to `CCCC/C=C/CCCCCCCCCC1(O)CC(=O)c2c(O)cc(O)cc2O1` (stereo not given), for which the IC50 is 18.7 µM in assay [1] and 33.9 µM in assay [2].
Consider `CC/C=C\C/C=C\C/C=C\CCCCCCCC1(O)CC(=O)c2c(O)cc(OCOC)cc2O1` (stereo not given), for which the IC50 in assay [1] came out at 6.79 µM; in assay [2] it was 17.5 µM.
Take `CCCC/C=C\CCCCCCCCCc1cc(=O)c2c(O)cc(O)c(C)c2o1`: the IC50 in assay [1] is 6.79 µM; in assay [2], 17.5 µM.
As to `CCCCCCCCCCCCCCCc1cc(=O)c2c(O)cc(OCOC)c(C)c2o1`, the IC50 in assay [1] is over 87 µM; in assay [2], over 67.3 µM.
On the same counts, the results for `CCCCCCCCCCCCCCCC1(O)CC(=O)c2c(O)c(C)c(O)c(C)c2O1` (stereo not given) are 16.1 µM and over 100 µM.
For the compound `CCCCCCCCCCCCCCCc1cc(=O)c2c(O)c(C)c(OCOC)c(C)c2o1`, the IC50 in assay [1] is over 87 µM; in assay [2], over 67.3 µM.
For `CCCCC/C=C\C/C=C\CCCCCCCC1(O)CC(=O)c2c(O)cc(O)cc2O1` (stereo not given), the IC50 stood at 6.79 µM in assay [1] and 17.5 µM in assay [2].
In the same order, the values of `CCCCC1(O)CC(=O)c2c(O)cc(O)cc2O1` (stereo not given) are over 87 µM and over 67.3 µM.
As to `CCCCCCCCCCCCCCCc1cc(=O)c2c(O)c(C)c(O)cc2o1`, the IC50 in assay [1] turned out to be 42.8 µM; in assay [2], 43.2 µM.
Turning to `CCCCCCCCCCCCCCCc1cc(=O)c2c(O)c(C)c(OCOC)cc2o1`, the results for the IC50 in assay [1] and in assay [2] were over 87 µM and over 67.3 µM, respectively.
For the compound `CCCCCCCCCCCCCCCCCCCC1(O)CC(=O)c2c(O)cc(O)cc2O1` (stereo not given), the IC50 was over 87 µM in assay [1] and over 67.3 µM in assay [2].
On the same counts, the results for `CCCCCCCCCCCCCCCc1cc(=O)c2c(O)cc(O)cc2o1` are 6.79 µM and 17.5 µM.
On the same counts, the results for `CCCC/C=C\CCCCCCCCCc1cc(=O)c2c(O)cc(O)cc2o1` are 6.79 µM and 17.5 µM.
Consider `CCCCCCCCCCCCCCCC1(O)CC(=O)c2c(O)cc(OCOC)cc2O1` (stereo not given), for which the IC50 in assay [1] was over 87 µM; in assay [2], over 67.3 µM.
On the same counts, the results for `CC/C=C\C/C=C\C/C=C\CCCCCCCc1cc(=O)c2c(O)cc(O)cc2o1` are 6.79 µM and 17.5 µM.
Regarding `CC/C=C\C/C=C\C/C=C\CCCCCCCc1cc(=O)c2c(O)cc(OCOC)c(C)c2o1`, the IC50 in assay [1] was found to be 6.79 µM; in assay [2], 17.5 µM.
For `CCCCC/C=C\C/C=C\CCCCCCCc1cc(=O)c2c(O)cc(O)cc2o1`, the IC50 amounted to 6.79 µM in assay [1] and 17.5 µM in assay [2].
For `CC/C=C\C/C=C\C/C=C\CCCCCCCc1cc(=O)c2c(O)c(C)c(OCOC)c(C)c2o1`, the IC50 in assay [1] was 16.1 µM; in assay [2], over 84.1 µM.
With `CC/C=C\C/C=C\C/C=C\CCCCCCCC1(O)CC(=O)c2c(O)cc(O)cc2O1` (stereo not given), the IC50 in assay [1] came to 6.79 µM; in assay [2], 17.5 µM.
On to `CCCCC/C=C\C/C=C\CCCCCCCc1cc(=O)c2c(O)cc(O)c(C)c2o1`, for which the results for the IC50 in assay [1] and in assay [2] were 6.79 µM and 17.5 µM, respectively.
`CCCCCCCCCCCC1(O)CC(=O)c2c(O)cc(O)cc2O1` (stereo not given): the IC50 in assay [1] came out at 42.8 µM; in assay [2] it was 43.2 µM.
As for `CCCCCCCCCCCCCCCC1(O)CC(=O)c2c(O)cc(O)cc2O1` (stereo not given), the results for the IC50 in assay [1] and in assay [2] were 6.79 µM and 17.5 µM, respectively.
As for `CCCCC/C=C\C/C=C\CCCCCCCc1cc(=O)c2c(O)cc(OCOC)cc2o1`, the IC50 in assay [1] was over 87 µM; in assay [2], over 67.3 µM.
As for `CCCCC/C=C\C/C=C\CCCCCCCC1(O)CC(=O)c2c(O)cc(OCOC)cc2O1` (stereo not given), the results for the IC50 in assay [1] and in assay [2] were 16.1 µM and over 84.1 µM, respectively.
As for `CC/C=C\C/C=C\C/C=C\CCCCCCCc1cc(=O)c2c(O)cc(O)c(C)c2o1`, the IC50 in assay [1] is 6.79 µM; in assay [2], 17.5 µM.
`CCCC/C=C\CCCCCCCCCc1cc(=O)c2c(O)c(C)c(OCOC)cc2o1`: the IC50 is over 87 µM in assay [1] and over 67.3 µM in assay [2].
As to `CCCCC/C=C\C/C=C\CCCCCCCc1cc(=O)c2c(O)c(C)c(OCOC)c(C)c2o1`, the IC50 was 16.1 µM in assay [1] and over 84.1 µM in assay [2].
`CCCC/C=C\CCCCCCCCCc1cc(=O)c2c(O)c(C)c(OCOC)c(C)c2o1`: the IC50 is over 87 µM in assay [1] and over 67.3 µM in assay [2].
`CCCCCCCCCCCCCCCc1cc(=O)c2c(O)cc(O)c(C)c2o1`: the IC50 in assay [1] turned out to be 6.79 µM; in assay [2], 17.5 µM.
For `CC/C=C\C/C=C\C/C=C\CCCCCCCc1cc(=O)c2c(O)c(C)c(OCOC)cc2o1`, the IC50 in assay [1] amounted to 6.79 µM; in assay [2] it was 17.5 µM.
In the case of `CCCC/C=C\CCCCCCCCCc1cc(=O)c2c(O)c(C)c(O)cc2o1`, the figures for the IC50 in assay [1] and in assay [2] were 42.8 µM and 43.2 µM, respectively.
On the same counts, the results for `CCCCC/C=C\C/C=C\CCCCCCCC1(O)CC(=O)c2c(O)c(C)c(O)c(C)c2O1` (stereo not given) are 42.8 µM and 43.2 µM.
On the same counts, the results for `CCCCC/C=C\C/C=C\CCCCCCCc1cc(=O)c2c(O)c(C)c(O)c(C)c2o1` are 16.1 µM and over 84.1 µM.
`CCCCC/C=C\C/C=C\CCCCCCCc1cc(=O)c2c(O)cc(OCOC)c(C)c2o1`: the IC50 in assay [1] is 16.1 µM; in assay [2] it was over 84.1 µM.
As to `CCCCC/C=C\C/C=C\CCCCCCCc1cc(=O)c2c(O)c(C)c(OCOC)cc2o1`, the IC50 is over 87 µM in assay [1] and over 67.3 µM in assay [2].
Take `CCCCC/C=C\C/C=C\CCCCCCCc1cc(=O)c2c(O)c(C)c(O)cc2o1`: the IC50 in assay [1] is 16.1 µM; in assay [2] it was over 84.1 µM.
For `CCCC/C=C\CCCCCCCCCC1(O)CC(=O)c2c(O)cc(OCOC)cc2O1` (stereo not given), the values for the IC50 in assay [1] and in assay [2] were 42.8 µM and 43.2 µM, respectively.
`CC/C=C\C/C=C\C/C=C\CCCCCCCC1(O)CC(=O)c2c(O)c(C)c(O)c(C)c2O1` (stereo not given): the values for the IC50 in assay [1] and in assay [2] were 42.8 µM and 43.2 µM, respectively.
As for `CCCC/C=C\CCCCCCCCCc1cc(=O)c2c(O)cc(OCOC)cc2o1`, the IC50 in assay [1] was over 87 µM; in assay [2], over 67.3 µM.
Take `CCCC/C=C\CCCCCCCCCc1cc(=O)c2c(O)c(C)c(O)c(C)c2o1`: the results for the IC50 in assay [1] and in assay [2] were over 87 µM and over 67.3 µM, respectively.
Regarding `CCCC/C=C\CCCCCCCCCc1cc(=O)c2c(O)cc(OCOC)c(C)c2o1`, the values for the IC50 in assay [1] and in assay [2] were over 87 µM and over 67.3 µM, respectively.
For the compound `CC/C=C\C/C=C\C/C=C\CCCCCCCc1cc(=O)c2c(O)cc(OCOC)cc2o1`, the IC50 is 6.79 µM in assay [1] and 17.5 µM in assay [2].
In the same order, the values of `CC/C=C\C/C=C\C/C=C\CCCCCCCc1cc(=O)c2c(O)c(C)c(O)c(C)c2o1` are 6.79 µM and 17.5 µM.
On the same counts, the results for `CC/C=C\C/C=C\C/C=C\CCCCCCCc1cc(=O)c2c(O)c(C)c(O)cc2o1` are 6.79 µM and 17.5 µM.
As to `CCCCCCCCCCCCCCCc1cc(=O)c2c(O)c(C)c(O)c(C)c2o1`, the values for the IC50 in assay [1] and in assay [2] were over 87 µM and over 67.3 µM, respectively.

For the origin of these results see ChEMBL document CHEMBL5030514, “Discovery of Anti-TNBC Agents Targeting PTP1B: Total Synthesis, Structure-Activity Relationship, In Vitro and In Vivo Investigations of Jamunones” (J Med Chem, 2021).
